{"source": "patent US10694742B2", "about": "“Composition comprising a pesticide and a hydroxyalkyl polyoxylene glycol ether” (BASF SE, priority 2014, dated 2020)", "key": {"Puccinia triticina": {"tested_on": "Puccinia triticina", "test": "Greenhouse biological activity on infected wheat", "type": "in vivo, Puccinia triticina on wheat (species Kanzler)", "conditions": "sprayed three days after infection, rated after ten days, three replicates", "experimental": "The biological activity was assessed in a greenhouse on wheat (species “Kanzler”), which was infected with Puccinia triticina at two leafes stage and incubated for three days at high humidity. The plants were sprayed (spray volume 200 l/ha) with a composition comprising 50 ppm (10 g/ha or 2.5 g/ha dose rate) epoxiconazole and 100 ppm (20 g/ha) of the respective Compounds 1-7. In the comparative example no adjuvant was added. The plants were further cultivated for ten days at 20-24° C. and 60-90% relative humidity. Finally, the percentage of the infected leaf area (pustules) was visually inspected. Each value was based on three replicates."}, "Septoria and Brown rust": {"tested_on": "Septoria and Brown rust", "test": "Field trial winter wheat, yield", "type": "in vivo, winter wheat (var. Akteur)", "conditions": "for Yield Winter Wheat, Relative Yield (%): half rate (N/2) Epoxiconazole SC 125 applied twice at BBCH 32 and 51, adjuvant 150 ml/ha in tank mix, comparative experiment = 100.0", "experimental": "(§1) Field studies were conducted on a Parabraunerde soil in accordance with GEP in southern Germany on commercially planted winter wheat (var. Akteur) and winter rapeseed (var. Genie), respectively, exposed to a maritime climate. The standard experimental design was a randomized complete block with 4 replicates. There was no artificial infestation. Fungicides were applied at their label rate (N) and when mixed with adjuvants in the tank, at half rate (N/2). Dose rate of adjuvants was 150 ml/ha. Efficacy was measured by yield in dt/ha. Following the analysis of variance a mean separation test (Student-Newman-Keuls) was applied at a 5% significance level. All treatments were fully selective.\nSpray volume was 200 l/ha applied with an AirMix 110-03 nozzle at a pressure of 1.9 bar. Plots were in 2.5 m by 7 m large. Epoxiconazole SC 125 with a dispersing additive (based on naphthalene sulfonic acid formaldehyde condensation product, sodium salt) was applied twice at the growth stages (BBCH) 32 and 51. During the course of trial, there was a natural infestation of Septoria and Brown rust. In each treatment, the dose rate of adjuvants was 150 ml/ha.\n(§2) For a quantitative measure, the yield of each treatment was determined."}, "Wheat plants": {"tested_on": "Wheat plants", "test": "Uptake rate of pesticide into sprayed wheat leaves (HPLC-MS/MS)", "type": "in vivo, Triticum aestivum variety Melon", "conditions": "125 g/ha epoxiconazole, 125 g/ha fluxapyroxad, 250 g/ha adjuvant compound; 200 l/ha; leaves sampled after 8 days", "excerpt": "Wheat plants (Triticum aestivum variety Melon) were cultivated in the greenhouse for 6 weeks up to development stage BBCH 39. The plants were transferred to an automatic lab track sprayer and they were sprayed with 125 g/ha epoxiconazole, 125 g/ha fluxapyroxad, and 250 g/ha of the respective Compound 1-5 according to the following parameters:\nNozzle type: Air injector, ID 120 02 (Lechler, Germany)\nSubsequently to spraying, the plants were cultivated again in the greenhouse under ambient conditions. After 8 days samples of 10-15 treated leaves were cut off and weighed.\nLeaves were cut into small pieces, transferred into glass bottles and washed with 50% methanol in demineralized water as washing medium for 5 min. Then, the washing medium was separated from the leaves. The leaves were washed again with washing medium for 5 min. […]\nFinally, the leaves were transferred to a vial containing the extraction medium (75% methanol, 20% water and 5% HCl) and homogenized using a Polytron PT 6100 dispersing unit (Kinematica, CH) for 2 min. […] The residue was solubilized in methanol/water 50:50 and analyzed by HPLC-MS/MS.\nAn Agilent 1100 series HPLC coupled to an Applied Biosystems API 3000 triple quadrupole mass spectrometer, equipped with an electro spray ionization source, was used. […] According to the recovery rate the measured sample values were corrected. […]"}, "Sclerotinia sp.": {"tested_on": "Sclerotinia sp.", "test": "Field trial rapeseed, yield", "type": "in vivo, winter rapeseed (var. Genie)", "conditions": "half rate (N/2) Cantus Gold SC applied at BBCH 51; adjuvant 150 ml/ha in tank mix; comparative experiment = 100.0", "experimental": "as §1\nSpray volume was 250 l/ha applied with an AirMix 110-03 nozzle at a pressure of 2.1 bar. Plots were in 3 m by 7 m large. Cantus® Gold SC (200 g/l Boscalid and 200 g/l Dimoxystrobin with a dispersing additive based on benzenesulfonic acid, hydroxy-, polymer with formaldehyde, phenol and urea, sodium salt) was applied at the growth stage (BBCH) 51 of rapeseed on a Parabraunerde soil. During the course of trial, there was a natural infestation of Sclerotinia sp. In each treatment, the dose rate of adjuvants was 150 ml/ha.\nas §2"}}}
{"smiles": "Fc1ccc([C@]2(Cn3cncn3)O[C@H]2c2ccccc2Cl)cc1", "note": "(racemic) [epoxiconazole]", "values": [{"measurement": "Infected leaf area 2,5 g/ha dose rate", "setting": "Puccinia triticina; epoxiconazole 2,5 g/ha + 100 ppm (20 g/ha) adjuvant compound", "result": 78, "unit": "%"}, {"measurement": "Infected leaf area 10 g/ha dose rate", "setting": "Puccinia triticina; epoxiconazole 10 g/ha + 100 ppm (20 g/ha) adjuvant compound", "result": 48, "unit": "%"}, {"measurement": "Yield Winter Wheat, Relative Yield (%)", "setting": "Septoria and Brown rust", "result": 103.5, "unit": "%"}, {"measurement": "Epoxiconazole Uptake Rate [%]", "setting": "Wheat plants", "result": 19, "unit": "%"}]}
{"smiles": "CCCCCCCCC(O)COCCOCCOCCOCCOCCOCCOCCOCCOCCOCC(CC)CCCC", "note": "(stereo not shown) [Compound C]", "values": [{"measurement": "Yield Rapeseed, Relative Yield (%)", "setting": "Sclerotinia sp.", "result": 104.6, "unit": "%"}, {"measurement": "Improvement of yield of the half rate (N/2) compared to N/2 alone, wheat", "setting": "Septoria and Brown rust; N/2 epoxiconazole + adjuvant 150 ml/ha, Student-Newman-Keuls, 5% significance level", "result": "significant improvements"}, {"measurement": "Yield Winter Wheat, Relative Yield (%)", "setting": "Septoria and Brown rust", "result": 109.4, "unit": "%"}]}
